Assay results: patent US20240076406A1, “SINGLE DOMAIN ANTIBODIES TARGETING CA-IX AS WELL AS COMPOSITIONS COMPRISING SAME” (National Research Council of Canada, priority 2021, published 2024)

Tests used:
[1] = molecular target: T1, purified hCA-IX ECD dimer (Homo sapiens, UniProt Q16790); experiment: In vitro rhCA-IX enzyme activity inhibition (4Mu-Ac hydrolysis); format: biochemical; details: [inhibitor] vs. normalized response - variable slope
T1 construct: in vitro enzyme activity assay using purified hCA-IX ECD dimer
Procedure: In vitro rhCA-IX enzyme activity inhibition. In order to examine the functional consequence of the binding of the two sdCA9-VHH antibodies to hCA-IX ECD, antibodies were tested in an in vitro enzyme activity assay using purified hCA-IX ECD dimer and 4-Methylumbelliferyl acetate (4Mu-Ac) as substrate.

[2] = system: 67NR^hCA-IX derived spheroids; experiment: Spheroid growth inhibition, 67NR^hCA-IX; format: cell-based, mouse; details: monitored for 8 days; compared with 67NR derived spheroids
Text: Spheroid growth inhibition.

[3] = system: SKRC59 and SKRC52 cell lines (low and high levels of hCA-IX); experiment: Cell binding assay, plate format; format: cell-based, human; details: cell line of Table 3 not stated
Procedure: Cell binding assays were performed using a plate-based format, binding was expressed as the mean fluorescent intensity per cell area. (control IgG (●), cG250 (▪), sdCA9-1-Fc (▴), and sdCA9-2-Fc (▾)). KD values were determined by plotting fluorescent intensity measured for each condition of the sdCA9-Fc antibodies using Graphpad Prism. cG250 full sized antibody (FSA) and isotype matching IgG FSA were used as bench mark and negative control, respectively.
Cell binding. […] These cell lines have been used in the literature for the screening of scFv Abs for binding to hCA-IX (Xu et al. 2010). KD values were determined to be in the low nanomolar range, the clinically used cG250 full sized antibody (FSA) was used as a bench mark. An isotype matching hIgG was used as negative control (FIG. 5).

| HillSlope (best fit value) [1] | Compound | spheroid growth, different concentrations [2] | Kd ([3]; cell binding, text: low nanomolar range, read-out: KD (best-fit value, one site specific binding)) | Bmax (best-fit value, one site specific binding) ([3]; mean fluorescent intensity per cell area) |
| --- | --- | --- | --- | --- |
| −0.3305 | NS(=O)(=O)c1ccc(NC(=O)Nc2ccc(F)cc2)cc1 [Clone U104, reference compound] | inhibited spheroid growth in a dose-dependent manner | – | – |
| – | cG250: clinically used anti-CA-IX full sized antibody (FSA), used as bench mark [reference compound] | – | 1.29 nM | 574.6 |
